Values quoted from earlier work, collected in patent US20240009181A1, “METHOD FOR THE TREATMENT AND PROPHYLAXIS OF SUBSTANCE-RELATED AND/OR ADDICTIVE DISORDERS INCLUDING SUBSTANCE/MEDICATION-INDUCED DEPRESSIVE DISORDERS, BIPOLAR AND RELATED DISORDERS, AND ANXIETY DISORDERS AND COMPOSITIONS USEFUL FOR THE SAME” (priority 2022, published 2024).

Assays:
[1] = in vivo
opioid use disorder = settings: vs. 23% given placebo

SMILES	half-life [1]	complete abstinence (opioid-free over 19 weeks of treatment), share of subjects (opioid use disorder) [%]
O=C1CCc2ccc(OCCCCN3CCN(c4cccc(Cl)c4Cl)CC3)cc2N1 [aripiprazole]	about 75 hours	
O=c1ccc2ccc(OCCCCN3CCN(c4cccc5sccc45)CC3)cc2[nH]1 [brexpiprazole]	about 91 hours	
O=C1CC[C@@]2(O)[C@H]3Cc4ccc(O)c5c4[C@@]2(CCN3CC2CC2)[C@H]1O5 [naltrexone]		36
CC1(C)O[C@@H]2[C@@H](CO[C@@]3(COS(N)(=O)=O)OC(C)(C)O[C@@H]23)O1 [topiramate]	about 21 hours	
